Results as given in patent US6465494B1, “Methods for treatment of cystic fibrosis” (Cell Pathways, Inc., priority 2001, dated 2002).
Like-named read-outs stand apart in the source and are kept apart here.

Assays:
[1] = target: T1, GST-cGB-PDE5 fusion protein (Homo sapiens, UniProt O76074); experiment: cGMP binding assay with GST-cGB-PDE5 fusion protein; settings: for competition with cGMP binding to GST-cGB-PDE5 at high concentration: compound at high concentration, cGMP 2 μM
T1 construct: made in house; host or cells: E. coli BL21 (DE3)
Source text: RT-PCR method is used to obtain the cGB domain of PDE5 with forward and reverse primers designed from bovine PDE5A cDNA sequence (McAllister-Lucas L. M et al, J. Biol. Chem. 268, 22863-22873, 1993) and the selection among PDE 1-10 families. 5′-3′, Inc. kits for total RNA followed by oligo (dT) column purification of mRNA are used with HT-29 cells. […] It is then cloned into pGEX-5X-3 glutathione-S-transferase (GST) fusion vector (Pharmacia Biotech )with tac promoter, and EcoRI and XhoI cut sites. The fusion vector is then transfected into E. Coli BL21 (DE3) bacteria (Invitrogen). The transfected BL21 bacteria is grown to log phase, and then IPTG is added as an inducer. The induction is carried at 20° C. for 24 hrs. The bacteria are harvested and lysed. The soluble cell lysate is incubated with GSH conjugated Sepharose 4B (GSH-Sepharose 4B). The GST-cGB-PDE5 fusion protein can bind to the GSH-Sepharose beads, and the other proteins are washed off from beads with excessive cold PBS.
Then, the mixture is transferred to Brandel MB-24 cell harvester with GF/B as the filter membrane followed by 2 washes with 10 mL of cold 5 mM potassium buffer(pH 6.8). The membranes are then cut out and transferred to scintillation vials followed by the addition of 1 mL of H2O and 6 mL of Ready Safe™ liquid scintillation cocktail to each vial. The vials are counted on a Beckman LS 6500 scintillation counter.
The quenching by filter membrane or other debris are also calibrated.

[2] = target: native bovine PDE5 (Bos taurus, UniProt Q28156); settings: read-out: Kd of cGMP binding, native bovine PDE5; cited from earlier work
[3] = test system: U937 cells; experiment: apoptosis induction of U937 cells (active caspase 3 immunofluorescence); format: cell-based; settings: 24 hours
Procedure: The U937 monocyte cell line was derived from a histocytic lymphoma and can be driven to differentiate into an ‘activated macrophage like’ state by treatment with 5nM phorbal ester (TPA). Treated U937 cells become adherent, increase their cytoplasmic volume and express macrophage-specific cell surface markers. The presence and level of PDE2 and 5 mRNA in both differentiated and non-differentiated U937 cells was confirmed by performing RT-PCR experiments on total RNA.
U937 cells (from ATCC Rockville, Md.) were grown in RPMI media supplemented with 5% FCS, glutamine, antibiotic/antimycotic and sodium pyruvate. Total RNA was isolated from two U937 cultures, one treated with 5nM TPA for 48 hours and one grown in normal media as listed above, using the Rouche High Pure RNA Isolation Kit (cat# 1 828 665) as per manufacturers protocol. cDNA was then synthesized from the total RNA using GibcoBRL Superscriptll (Cat # 18064-022) reverse transcriptase as per manufacturers protocol. The resulting cDNA was used as a template for RT-PCR reactions using primer sets specific for PDE2 (forward: […], reverse: […]) or PDE5 (forward: […], reverse: […]). mRNA for PDE2 and 5 were both present in the untreated U937 cells. Upon treatment with TPA, the relative amounts of PDE2 mRNA increased 5 fold. Therefore, U937 cells treated with TPA and driven to differentiate into an activated macrophage like state have elevated levels of PDE2 mRNA (see FIG. 1).
The presence of PDE2 and PDE5 protein within U937 cells was confirmed by indirect immunofluorescence (IIF). U937 cells were cultured as above. Two U937 cultures, one grown in the presence of 5 nM TPA for 48 hours and one grown in normal media were processed. All cultures were collected by centrifugation (Shandon Cytospin, 2 minutes @ 600 rpm) onto poly-L lysine-coated slides and immediately fixed in fresh 3% paraformaldehyde buffered in PBS for 10 minutes. Adherent cultures were grown on coverslips and fixed as above. […]
The level of apoptosis in U937 cells was quantified by scoring 500 consecutive cells for the presence of active caspase 3. […]

[4] = target: PDE5 (Homo sapiens, UniProt O76074); experiment: cGMP PDE inhibition, 3H-cGMP hydrolysis: PDE5; format: biochemical; set-up: partially purified cGMP-specific PDE isolated from HT-29 cells; endogenous in cells; host or cells: HT-29
Procedure: (Thompson, W. J., Teraski, W. L., Epstein, P. M., Strada, S. J., Advances in Cyclic Nucleotide Research, 10:69-92, 1979, which is incorporated herein by reference). […] The mixture is incubated at 30° C. for 10 minutes with isolated PDE2 and/or PDE5. Reactions are terminated, for example, by boiling the reaction mixture for 75 seconds. After cooling on ice, 100 μl of 0.5 mg/mL snake venom (O. Hannah venom available from Sigma) is added and incubated for 10 minutes at 30° C. This reaction is then terminated by the addition of an alcohol, e.g. 1 mL of 100% methanol. Assay samples are applied to 1 mL Dowex 1-X8 column; and washed with 1 mL of 100% methanol. The amount of radioactivity in the breakthrough and the wash from the column is combined and measured with a scintillation counter. The degree of phosphodiesterase inhibition is determined by calculating the amount of radioactivity in drug-treated reactions and comparing against a control sample (a reaction mixture lacking the tested compound but with drug solvent).
Compounds of this invention are also PDE2 and PDE5 inhibitors as taught in part U.S. patent application Ser. No. 09/046,739 filed Mar. 24, 1998. […] The amount of radioactivity in the breakthrough and the wash from the columns in then measured with a scintillation counter. […]

| Compound | competition with cGMP in binding to the cGMP binding sites of GST-cGB-PDE5 ([1]; 3H-cGMP 2 μM, 22° C., 1 hour) | also measured |
| --- | --- | --- |
| CCCCOC1C2OP(=O)(O)OCC2OC1n1cnc2c(=O)[nH]c(N)nc21 (stereo not shown) [2′-O-butyl-cGMP] | did not compete | – |
| CSc1ccc(/C=C2/C(C)=C(CC(=O)O)c3cc(F)ccc32)cc1 [Sulindac sulfide, sulindac sulfide] | None of the PDE5 inhibitors showed any competition with cGMP | – |
| Nc1nc2c(nc(Br)n2[C@@H]2O[C@@H]3COP(=O)(O)O[C@H]3[C@H]2O)c(=O)[nH]1 [Example 8-bromo-cGMP, 8-bromo-cGMP] | – | competition with cGMP binding to GST-cGB-PDE5 at high concentration [1]: can partially compete |
| Nc1nc2c(ncn2[C@@H]2O[C@@H]3COP(=O)(O)O[C@H]3[C@H]2O)c(=O)[nH]1 [cGMP, cyclic 3′,5′-guanosine monophosphate] | – | Kd [2]: 1.3 µM; Kd ([1]; read-out: Kd of cGMP binding to GST-cGB-PDE5 fusion protein, two cGMP binding sites): 1.6 ± 0.2 µM |
| O=C([O-])C1CCN(c2nc(NCc3ccc4c(c3)OCO4)c3cc(Cl)ccc3n2)CC1.[Na+] [Example E4021] | None of the PDE5 inhibitors showed any competition with cGMP | – |
| CCCCOC1C2OP(=O)(O)OCC2OC1n1cnc2c(N)ncnc21 (stereo not shown) [2′-O-butyl-cAMP] | did not compete | – |
| CC1=C(CC(=O)O)c2cc(F)ccc2/C1=C\c1ccc(S(C)(=O)=O)cc1 [exisulind] | None of the PDE5 inhibitors showed any competition with cGMP | – |
| COc1ccc(C2CNC(=O)C2)cc1OC1CCCC1 (stereo not shown) [rolipram, reference compound] | – | levels of apoptosis (active caspase 3) ([3]; 0.5uM): No increase in the levels of apoptosis compared to normal background |
| Nc1ncnc2c1ncn2[C@@H]1O[C@@H]2COP(=O)(O)O[C@H]2[C@H]1O [Cyclic AMP] | – | competition with cGMP in binding to the cGMP binding sites of GST-cGB-PDE5 [1]: did not compete |
| CCCc1nn(C)c2c(=O)[nH]c(-c3cc(S(=O)(=O)N4CCN(C)CC4)ccc3OCC)nc12 [sildenafil, reference compound] | – | levels of apoptosis (active caspase 3) ([3]; 0.3nM): No increase in the levels of apoptosis compared to normal background |
| O=c1[nH]cnc2c1ncn2[C@@H]1O[C@@H]2COP(=O)(O)O[C@H]2[C@H]1O [Cyclic IMP, cyclic IMP] | – | competition with cGMP binding to GST-cGB-PDE5 at high concentration [1]: can partially compete |
| CC1=C(CC(=O)NCc2ccccc2)c2cc(F)ccc2/C1=C\c1ccncc1 [Example 1, (Z)-5-Fluoro-2-Methyl-(4-Pyridinylidene)-3-(N-Benzyl)-Indenylacetamide] | – | IC50 [4]: 0.68 µM |
| O=c1ccn([C@@H]2O[C@@H]3COP(=O)(O)O[C@H]3[C@H]2O)c(=O)[nH]1 [cUMP, cyclic UMP] | did not compete | – |
| CCCOc1ccccc1-c1nc2nn[nH]c2c(=O)[nH]1 [zaprinast] | None of the PDE5 inhibitors showed any competition with cGMP | – |
| Nc1ccn([C@@H]2O[C@@H]3COP(=O)(O)O[C@H]3[C@H]2O)c(=O)n1 [cCMP, cyclic CMP] | did not compete | – |
